Source: PubChem BioAssay (NCI)
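Cultured in 96-well plates, cells were exposed to test compound for 48 hours across five concentrations. At the TGI there is no net growth.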

Experiments:
Assay in all cases: NCI anticancer screen, dose series, 48 h
SW-620 colon = test system: SW-620 colon
U251 CNS = test system: U251 CNS
SN12C renal = test system: SN12C renal
NCI/ADR-RES ovarian = test system: NCI/ADR-RES ovarian
HCT-15 colon = test system: HCT-15 colon
786-0 renal = test system: 786-0 renal
COLO 205 colon = test system: COLO 205 colon
OVCAR-3 ovarian = test system: OVCAR-3 ovarian
A498 renal = test system: A498 renal
UACC-62 melanoma = test system: UACC-62 melanoma
A549 NSCLC = test system: A549 NSCLC
HS 578T breast = test system: HS 578T breast
K-562 leukemia = test system: K-562 leukemia
SF-268 CNS = test system: SF-268 CNS
M14 melanoma = test system: M14 melanoma
CCRF-CEM leukemia = test system: CCRF-CEM leukemia
HL-60(TB) leukemia = test system: HL-60(TB) leukemia
PC-3 prostate = test system: PC-3 prostate
MDA-MB-435 = test system: MDA-MB-435
HCC-2998 colon = test system: HCC-2998 colon
RXF 393 renal = test system: RXF 393 renal
SK-MEL-28 melanoma = test system: SK-MEL-28 melanoma
HCT-116 colon = test system: HCT-116 colon
SK-MEL-2 melanoma = test system: SK-MEL-2 melanoma
SK-OV-3 ovarian = test system: SK-OV-3 ovarian
LOX IMVI melanoma = test system: LOX IMVI melanoma
UACC-257 melanoma = test system: UACC-257 melanoma
UO-31 renal = test system: UO-31 renal
HOP-92 NSCLC = test system: HOP-92 NSCLC
SR leukemia = test system: SR leukemia
SK-MEL-5 melanoma = test system: SK-MEL-5 melanoma
EKVX NSCLC = test system: EKVX NSCLC
HT29 colon = test system: HT29 colon
NCI-H460 lung = test system: NCI-H460 lung
RPMI-8226 leukemia = test system: RPMI-8226 leukemia
NCI-H226 lung = test system: NCI-H226 lung
DU-145 prostate = test system: DU-145 prostate
MCF7 breast = test system: MCF7 breast
SNB-75 CNS = test system: SNB-75 CNS
MOLT-4 leukemia = test system: MOLT-4 leukemia
T-47D breast = test system: T-47D breast
OVCAR-8 ovarian = test system: OVCAR-8 ovarian
MALME-3M melanoma = test system: MALME-3M melanoma
CAKI-1 renal = test system: CAKI-1 renal
MDA-MB-231 breast = test system: MDA-MB-231 breast
KM12 colon = test system: KM12 colon
BT-549 breast = test system: BT-549 breast
SF-295 CNS = test system: SF-295 CNS
IGROV1 ovarian = test system: IGROV1 ovarian
SF-539 CNS = test system: SF-539 CNS
SNB-19 CNS = test system: SNB-19 CNS
TK-10 renal = test system: TK-10 renal
NCI-H23 lung = test system: NCI-H23 lung
HOP-62 NSCLC = test system: HOP-62 NSCLC
ACHN renal = test system: ACHN renal
MDA-N = test system: MDA-N
NCI-H522 lung = test system: NCI-H522 lung
OVCAR-4 ovarian = test system: OVCAR-4 ovarian
OVCAR-5 ovarian = test system: OVCAR-5 ovarian

For O=C1c2ccccc2CC12Cc1ccccc1C2, the TGI (SW-620 colon) was greater than 100 µM, the TGI (U251 CNS) was greater than 100 µM and the TGI (SN12C renal) was greater than 100 µM. It also gave a TGI (NCI/ADR-RES ovarian) of 89.1 µM, a TGI (HCT-15 colon) greater than 100 µM and a TGI (786-0 renal) greater than 100 µM. The TGI (COLO 205 colon) was greater than 100 µM, the TGI (OVCAR-3 ovarian) was greater than 100 µM and the TGI (A498 renal) was greater than 100 µM. It also gave a TGI (UACC-62 melanoma) greater than 100 µM, a TGI (A549 NSCLC) greater than 100 µM and a TGI (HS 578T breast) greater than 100 µM. For the same compound, the TGI (K-562 leukemia) was greater than 100000 nM, the TGI (SF-268 CNS) was greater than 100 µM and the TGI (M14 melanoma) was greater than 100 µM. For the same compound, the TGI (CCRF-CEM leukemia) was greater than 100 µM, the TGI (HL-60(TB) leukemia) was 48.4 µM and the TGI (PC-3 prostate) was greater than 100 µM. For the same compound, the TGI (MDA-MB-435) was greater than 100 µM, the TGI (HCC-2998 colon) was 70.3 µM and the TGI (RXF 393 renal) was 70.1 µM. The TGI (SK-MEL-28 melanoma) was greater than 100 µM, the TGI (HCT-116 colon) was greater than 100000 nM and the TGI (SK-MEL-2 melanoma) was greater than 100 µM. The TGI (SK-OV-3 ovarian) was greater than 100 µM, the TGI (LOX IMVI melanoma) was greater than 100 µM and the TGI (UACC-257 melanoma) was 54.2 µM. The TGI (UO-31 renal) was greater than 100 µM, the TGI (HOP-92 NSCLC) was 91.9 µM and the TGI (SR leukemia) was 83.5 µM. It also gave a TGI (SK-MEL-5 melanoma) of 56.1 µM, a TGI (EKVX NSCLC) of 78.3 µM and a TGI (HT29 colon) of 70.5 µM. For the same compound, the TGI (NCI-H460 lung) was greater than 100 µM, the TGI (RPMI-8226 leukemia) was greater than 100 µM and the TGI (NCI-H226 lung) was greater than 100 µM. The TGI (DU-145 prostate) was greater than 100 µM, the TGI (MCF7 breast) was greater than 100 µM and the TGI (SNB-75 CNS) was 90.3 µM. For the same compound, the TGI (MOLT-4 leukemia) was greater than 100 µM, the TGI (T-47D breast) was greater than 100 µM and the TGI (OVCAR-8 ovarian) was greater than 100 µM. It also gave a TGI (MALME-3M melanoma) greater than 100 µM, a TGI (CAKI-1 renal) greater than 100000 nM and a TGI (MDA-MB-231 breast) greater than 100 µM. It also gave a TGI (KM12 colon) greater than 100 µM, a TGI (BT-549 breast) greater than 100 µM and a TGI (SF-295 CNS) greater than 100 µM. The TGI (IGROV1 ovarian) was greater than 100 µM, the TGI (SF-539 CNS) was greater than 100 µM and the TGI (SNB-19 CNS) was greater than 100 µM. It also gave a TGI (TK-10 renal) of 97.4 µM, a TGI (NCI-H23 lung) greater than 100 µM and a TGI (HOP-62 NSCLC) greater than 100 µM. The TGI (ACHN renal) was greater than 100 µM, the TGI (MDA-N) was greater than 100 µM and the TGI (NCI-H522 lung) was greater than 100000 nM. The TGI (OVCAR-4 ovarian) was greater than 100 µM and the TGI (OVCAR-5 ovarian) was greater than 100 µM.
O=C1N[C@@H]2c3c(Br)sc(Br)c3C(=O)[C@@H]2O1 showed a TGI (SW-620 colon) of 4.04 µM, a TGI (U251 CNS) of 6.1 µM and a TGI (SN12C renal) of 8.1 µM. The TGI (NCI/ADR-RES ovarian) was 18 µM, the TGI (HCT-15 colon) was 4.05 µM and the TGI (786-0 renal) was 19.8 µM. For the same compound, the TGI (COLO 205 colon) was 6.58 µM, the TGI (OVCAR-3 ovarian) was 3.38 µM and the TGI (A498 renal) was 30.4 µM. It also gave a TGI (UACC-62 melanoma) of 27.5 µM, a TGI (A549 NSCLC) of 32.6 µM and a TGI (HS 578T breast) of 78.7 µM. The TGI (K-562 leukemia) was 2560 nM, the TGI (SF-268 CNS) was 28.7 µM and the TGI (M14 melanoma) was 3.81 µM. For the same compound, the TGI (CCRF-CEM leukemia) was 3.94 µM, the TGI (HL-60(TB) leukemia) was 1.96 µM and the TGI (PC-3 prostate) was 18.7 µM. For the same compound, the TGI (MDA-MB-435) was 6.33 µM, the TGI (HCC-2998 colon) was 10.8 µM and the TGI (RXF 393 renal) was 4.95 µM. The TGI (SK-MEL-28 melanoma) was 6.64 µM, the TGI (HCT-116 colon) was 2780 nM and the TGI (SK-MEL-2 melanoma) was 37.1 µM. The TGI (SK-OV-3 ovarian) was 32.7 µM, the TGI (LOX IMVI melanoma) was 3.54 µM and the TGI (UACC-257 melanoma) was 8.76 µM. It also gave a TGI (UO-31 renal) of 24.8 µM, a TGI (HOP-92 NSCLC) of 11.8 µM and a TGI (SR leukemia) of 4.03 µM. The TGI (SK-MEL-5 melanoma) was 18.4 µM, the TGI (EKVX NSCLC) was 4.44 µM and the TGI (HT29 colon) was 3.59 µM. It also gave a TGI (NCI-H460 lung) of 27.7 µM, a TGI (RPMI-8226 leukemia) of 25.4 µM and a TGI (NCI-H226 lung) of 28.8 µM. The TGI (DU-145 prostate) was 28.2 µM, the TGI (MCF7 breast) was 12.6 µM and the TGI (SNB-75 CNS) was 16.7 µM. It also gave a TGI (MOLT-4 leukemia) of 4.61 µM, a TGI (T-47D breast) of 27 µM and a TGI (OVCAR-8 ovarian) of 4.52 µM. It also gave a TGI (MALME-3M melanoma) of 7.63 µM, a TGI (CAKI-1 renal) of 2370 nM and a TGI (MDA-MB-231 breast) of 5.83 µM. It also gave a TGI (KM12 colon) of 26 µM, a TGI (BT-549 breast) of 24.1 µM and a TGI (SF-295 CNS) of 32.5 µM. It also gave a TGI (IGROV1 ovarian) of 11.6 µM, a TGI (SF-539 CNS) of 24.1 µM and a TGI (SNB-19 CNS) of 30.3 µM. The TGI (TK-10 renal) was 10.5 µM, the TGI (NCI-H23 lung) was 7.35 µM and the TGI (HOP-62 NSCLC) was 42.7 µM. For the same compound, the TGI (ACHN renal) was 3.48 µM, the TGI (MDA-N) was 6.44 µM and the TGI (NCI-H522 lung) was 1530 nM. The TGI (OVCAR-4 ovarian) was 3.43 µM and the TGI (OVCAR-5 ovarian) was 27 µM.
